Experimental data from patent US12612410B2 (CHILDREN'S HOSPITAL MEDICAL CENTER, priority 2020, dated 2026).

Key:
FLT3 = target: T1, FLT3 (Homo sapiens, UniProt P36888); assay: RBC HotSpot Kinase Assay, FLT3; format: biochemical; set-up: purchased Reaction Biology (RBC), HotSpot kinase assay; settings: isolated kinase, 33P-ATP
T1 sequence (P36888 27-993): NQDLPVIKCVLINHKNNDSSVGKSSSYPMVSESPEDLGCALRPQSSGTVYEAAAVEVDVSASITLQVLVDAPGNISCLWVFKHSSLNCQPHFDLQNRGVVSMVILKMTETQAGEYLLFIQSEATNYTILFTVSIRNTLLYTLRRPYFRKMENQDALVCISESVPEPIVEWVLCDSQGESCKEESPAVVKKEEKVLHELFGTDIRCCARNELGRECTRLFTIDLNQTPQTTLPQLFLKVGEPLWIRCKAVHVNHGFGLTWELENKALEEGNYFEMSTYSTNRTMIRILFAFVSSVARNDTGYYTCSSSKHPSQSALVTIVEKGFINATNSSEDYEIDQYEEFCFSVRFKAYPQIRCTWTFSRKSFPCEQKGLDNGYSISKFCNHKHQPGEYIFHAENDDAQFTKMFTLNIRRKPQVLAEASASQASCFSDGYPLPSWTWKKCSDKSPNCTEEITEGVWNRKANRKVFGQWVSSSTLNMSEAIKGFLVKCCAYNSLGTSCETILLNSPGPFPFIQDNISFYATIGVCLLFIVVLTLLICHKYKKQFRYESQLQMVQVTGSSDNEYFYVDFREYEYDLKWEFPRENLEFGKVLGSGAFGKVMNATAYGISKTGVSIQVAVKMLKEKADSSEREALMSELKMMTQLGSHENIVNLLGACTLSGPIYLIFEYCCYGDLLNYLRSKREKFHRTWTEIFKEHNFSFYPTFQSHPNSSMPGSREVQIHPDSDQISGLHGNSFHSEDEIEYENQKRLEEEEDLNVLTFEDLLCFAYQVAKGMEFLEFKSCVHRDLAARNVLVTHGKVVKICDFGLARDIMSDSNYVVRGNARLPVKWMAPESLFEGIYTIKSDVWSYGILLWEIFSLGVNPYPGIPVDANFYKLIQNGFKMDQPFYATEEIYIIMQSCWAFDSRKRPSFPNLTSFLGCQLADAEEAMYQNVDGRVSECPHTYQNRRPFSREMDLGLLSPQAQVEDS
Outline: (§1)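 Radiometric filter-binding activity assay with isolated, possibly truncated kinases in 20 mM Hepes pH 7.5, 10 mM MgCl2, 1 mM EGTA, 2 mM DTT, 1% DMSO plus cofactors. Compound preincubated with kinase and substrate 20 min, then 33P-ATP added for 2 h at room temperature.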

IRAK1 = target: T2, IRAK1 (Homo sapiens, UniProt P51617); assay: RBC HotSpot Kinase Assay, IRAK1; format: biochemical; settings: isolated kinase, 33P-ATP
T2 construct: purchased Reaction Biology (RBC), HotSpot kinase assay
Outline: as §1

MOLM14 D835Y cells = assay: MOLM14 D835Y cell viability assay (Cell Titer Glo); format: cell-based
Outline: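 MOLM14 cells carrying FLT3 D835Y or F691L were seeded at 1000 cells/well in RPMI-1640 with 20% FBS and dosed at 22 concentrations, 1:2 dilutions from 10 μM. Viability after 48 h by Cell Titer Glo luminescence; 2.3 μM bortezomib as cytotoxic control.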

T2 sequence (P51617 whole entry): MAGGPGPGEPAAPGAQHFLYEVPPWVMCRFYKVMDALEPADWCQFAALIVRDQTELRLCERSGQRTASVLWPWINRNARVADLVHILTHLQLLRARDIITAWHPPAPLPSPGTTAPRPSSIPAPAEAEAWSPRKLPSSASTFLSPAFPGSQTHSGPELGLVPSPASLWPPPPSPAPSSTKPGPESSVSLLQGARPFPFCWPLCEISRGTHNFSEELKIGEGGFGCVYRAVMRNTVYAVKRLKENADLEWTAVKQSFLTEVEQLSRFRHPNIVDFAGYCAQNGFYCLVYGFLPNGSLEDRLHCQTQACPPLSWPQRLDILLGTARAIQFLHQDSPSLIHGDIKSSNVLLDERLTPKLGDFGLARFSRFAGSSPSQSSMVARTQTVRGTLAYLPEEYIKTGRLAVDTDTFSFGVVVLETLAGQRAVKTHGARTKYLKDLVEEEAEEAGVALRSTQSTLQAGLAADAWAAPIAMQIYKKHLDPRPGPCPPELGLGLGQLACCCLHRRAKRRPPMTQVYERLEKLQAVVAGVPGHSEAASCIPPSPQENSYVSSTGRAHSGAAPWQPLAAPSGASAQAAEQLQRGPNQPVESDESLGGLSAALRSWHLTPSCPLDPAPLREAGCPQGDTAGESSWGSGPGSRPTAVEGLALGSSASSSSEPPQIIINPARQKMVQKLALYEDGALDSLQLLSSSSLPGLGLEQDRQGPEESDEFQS

Row | Structure (SMILES) | IC50 (FLT3) [nM] | IC50 (IRAK1) [nM] | IC50 (MOLM14 D835Y cells; 48 hours) [nM] | IC50 (MOLM14 D835Y cells; Homo sapiens, MOLM-14, 48 h) [nM]
1 | CC(O)(c1cn2c(-c3cccc(N[C@H]4CNC[C@@H]4F)n3)cnc2cn1)C(F)(F)F (single isomer, unassigned) [Compound 77] | 0.9 | 237 | 106 | –
2 | CC1(c2cn3c(-c4cccc(N[C@@H]5CCNC5)n4)cnc3cn2)CC1 [Compound 3, (R)-6-(6-(1-methylcyclopropyl)imidazo[1,2-a]pyrazin-3-yl)-N-(pyrrolidin-3-yl)pyridin-2-amine] | 0.7 | 88 | – | 6
3 | CC(C)(O)c1cn2c(-c3nc(N[C@H]4CNC[C@@H]4F)c(F)cc3F)cnc2cn1 [Compound 33, 2-(3-(3,5-difluoro-6-(((3S,4S)-4-fluoropyrrolidin-3-yl)amino)pyridin-2-yl)imidazo[1,2-a]pyrazin-6-yl)propan-2-ol] | 0.6 | 61 | – | 168
4 | CC(C)(O)c1cn2c(-c3nc(N[C@@H]4CCCNC4)c(F)cc3F)cnc2cn1 [Compound 34, (R)-2-(3-(3,5-difluoro-6-(piperidin-3-ylamino)pyridin-2-yl)imidazo[1,2-a]pyrazin-6-yl)propan-2-ol] | 4 | 47 | – | 106
5 | CC(C)(O)c1cn2c(-c3nc(N[C@H]4CNCC[C@@H]4F)c(F)cc3F)cnc2cn1 [Compound 35, 2-(3-(3,5-difluoro-6-(((3S,4S)-4-fluoropiperidin-3-yl)amino)pyridin-2-yl)imidazo[1,2-a]pyrazin-6-yl)propan-2-ol] | 1 | 45 | – | 94
6 | F[C@H]1CNC[C@@H]1Nc1cccc(-c2cnc3cnc(C4CC4)cn23)n1 [Compound 50, 6-(6-cyclopropylimidazo[1,2-a]pyrazin-3-yl)-N-((3S,4S)-4-fluoropyrrolidin-3-yl)pyridin-2-amine] | 0.6 | 113 | – | 24
7 | FC(F)COc1cn2c(-c3cccc(N[C@H]4CNC[C@@H]4F)n3)cnc2cn1 [Compound 58, 6-(6-(2,2-difluoroethoxy)imidazo[1,2-a]pyrazin-3-yl)-N-((3S,4S)-4-fluoropyrrolidin-3-yl)pyridin-2-amine] | 0.7 | 117 | – | 30
8 | O=S1(=O)CCCN1c1cn2c(-c3cccc(N[C@H]4CNCC[C@@H]4F)n3)cnc2cn1 [Compound 97, 2-(3-(6-(((3S,4S)-4-fluoropiperidin-3-yl)amino)pyridin-2-yl)imidazo[1,2-a]pyrazin-6-yl)isothiazolidine 1,1-dioxide] | 0.6 | 53 | – | 5
9 | O=C1CCCN1c1cn2c(-c3nc(N[C@H]4CNCC[C@@H]4F)c(F)cc3F)cnc2cn1 [Compound 107, 1-[3-[3,5-difluoro-6-[[(3S,4S)-4-fluoro-3-piperidyl]amino]-2-pyridyl]imidazo[1,2-a]pyrazin-6-yl]pyrrolidin-2-one] | 1 | 130 | – | 21
10 | O=C1CCCN1c1cn2c(-c3nc(N[C@@H]4CCCNC4)c(F)cc3F)cnc2cn1 [Compound 108, (R)-1-(3-(3,5-difluoro-6-(piperidin-3-ylamino)pyridin-2-yl)imidazo[1,2-a]pyrazin-6-yl)pyrrolidin-2-one] | 0.9 | 109 | – | 26
11 | O=C1NCCN1c1cn2c(-c3cccc(N[C@H]4CNCC[C@@H]4F)n3)cnc2cn1 [Compound 118, 1-(3-(6-(((3S,4S)-4-fluoropiperidin-3-yl)amino)pyridin-2-yl)imidazo[1,2-a]pyrazin-6-yl)imidazolidin-2-one] | 1 | 22 | – | 9

Second part, the molecule after the results:

Row | IC50 (FLT3) [nM] | IC50 (IRAK1) [nM] | IC50 (MOLM14 D835Y cells; 48 hours) [nM] | IC50 (MOLM14 D835Y cells; Homo sapiens, MOLM-14, 48 h) [nM] | Structure (SMILES)
12 | < 0.5 | 66 | 47 | – | CC(O)(c1cn2c(-c3cccc(N[C@H]4CNC[C@@H]4F)n3)cnc2cn1)C(F)(F)F (single isomer, unassigned) [Compound 78]
13 | 0.6 | 64 | – | 68 | CC(O)(c1cn2c(-c3cccc(N[C@H]4CNCC[C@@H]4F)n3)cnc2cn1)C(F)(F)F (single isomer, unassigned) [Compound 80]
14 | < 0.5 | 31 | – | 30 | CC(O)(c1cn2c(-c3cccc(N[C@@H]4CCCNC4)n3)cnc2cn1)C(F)(F)F (single isomer, unassigned) [Compound 81]
15 | < 0.5 | 16 | 34 | – | CC(O)(c1cn2c(-c3cccc(N[C@H]4CNCC[C@@H]4F)n3)cnc2cn1)C(F)(F)F (single isomer, unassigned) [Compound 82]
16 | 0.6 | 63 | – | 18 | CC1(c2cn3c(-c4cccc(N[C@H]5CNC[C@@H]5F)n4)cnc3cn2)CC1 [Compound 1, N-((3S,4S)-4-fluoropyrrolidin-3-yl)-6-(6-(1-methylcyclopropyl)imidazo[1,2-a]pyrazin-3-yl)pyridin-2-amine]
17 | < 0.5 | 114 | – | 2 | CC1(c2cn3c(-c4cccc(N[C@H]5CNCC56CC6)n4)cnc3cn2)CC1 [Compound 5, (R)-N-(6-(6-(1-methylcyclopropyl)imidazo[1,2-a]pyrazin-3-yl)pyridin-2-yl)-5-azaspiro[2.4]heptan-7-amine]
18 | < 0.5 | 155 | – | 14 | FC(F)(F)C1(c2cn3c(-c4cccc(N[C@@H]5CCNC5)n4)cnc3cn2)CC1 [Compound 10, (R)-N-(pyrrolidin-3-yl)-6-(6-(1-(trifluoromethyl)cyclopropyl)imidazo[1,2-a]pyrazin-3-yl)pyridin-2-amine]
19 | < 0.5 | 60 | – | 21 | FC(F)c1cn2c(-c3cccc(N[C@H]4CNC[C@@H]4F)n3)cnc2cn1 [Compound 16, 6-(6-(difluoromethyl)imidazo[1,2-a]pyrazin-3-yl)-N-((3S,4S)-4-fluoropyrrolidin-3-yl)pyridin-2-amine]
20 | < 0.5 | 144 | – | 9 | FC(F)c1cn2c(-c3cccc(N[C@H]4CNCC[C@@H]4F)n3)cnc2cn1 [Compound 25, 6-(6-(difluoromethyl)imidazo[1,2-a]pyrazin-3-yl)-N-((3S,4S)-4-fluoropiperidin-3-yl)pyridin-2-amine]
21 | < 0.5 | 58 | – | 75 | CC(C)(O)c1cn2c(-c3cccc(N[C@@H]4CCCNC4)n3)cnc2cn1 [Compound 30, (R)-2-(3-(6-(piperidin-3-ylamino)pyridin-2-yl)imidazo[1,2-a]pyrazin-6-yl)propan-2-ol]
22 | < 0.5 | 23 | – | 63 | CC(C)(O)c1cn2c(-c3cccc(N[C@H]4CNCC[C@@H]4F)n3)cnc2cn1 [Compound 31, 2-(3-(6-(((3S,4S)-4-fluoropiperidin-3-yl)amino)pyridin-2-yl)imidazo[1,2-a]pyrazin-6-yl)propan-2-ol]
23 | < 0.5 | 92 | – | 23 | FC(F)(F)COc1cn2c(-c3cccc(N[C@@H]4CCNC4)n3)cnc2cn1 [Compound 38, (R)-N-(pyrrolidin-3-yl)-6-(6-(2,2,2-trifluoroethoxy)imidazo[1,2-a]pyrazin-3-yl)pyridin-2-amine]
24 | < 0.5 | 895 | – | 8 | Cn1cc(-c2cn3c(-c4cccc(N[C@@H]5CCCNC5)n4)cnc3cn2)cn1 [Compound 43, (R)-6-(6-(1-methyl-1H-pyrazol-4-yl)imidazo[1,2-a]pyrazin-3-yl)-N-(piperidin-3-yl)pyridin-2-amine]
25 | < 0.5 | 80 | – | 9 | F[C@H]1CCNC[C@@H]1Nc1cccc(-c2cnc3cnc(C4CC4)cn23)n1 [Compound 51, 6-(6-cyclopropylimidazo[1,2-a]pyrazin-3-yl)-N-((3S,4S)-4-fluoropiperidin-3-yl)pyridin-2-amine]
26 | < 0.5 | 202 | – | 11 | Cn1cc(-c2cn3c(-c4cccc(N[C@H]5CNC[C@@H]5F)n4)cnc3cn2)cn1 [Compound 52, N-((3S,4S)-4-fluoropyrrolidin-3-yl)-6-(6-(1-methyl-1H-pyrazol-4-yl)imidazo[1,2-a]pyrazin-3-yl)pyridin-2-amine]
